Target: SARS2 protease (Severe acute respiratory syndrome coronavirus 2, UniProt P0DTD1)
Experiment: SARS-CoV-2 protease inhibition assay (SARS2 FRET protease assay)
Type: biochemical
Conditions: SARS-CoV-2 protease 25 nM, FRET, peptide substrate 1.3 μM, 30 minutes at 30° C., compounds 20 μM to 1.0 nM; read-out: IC50

Row | Structure (SMILES) | IC50
1 | CCOP(=O)(OCC)C(O)C(CC1CC2(CCN(C(C)=O)CC2)NC1=O)NC(=O)C(CC(C)C)NC(=O)OCc1cccc(Cl)c1 (stereo in doubt) [Compound C69, 3-Chlorobenzyl ((2R)-1-((3-(8-acetyl-2-oxo-1,8-diazaspiro[4.5]decan-3-yl)-1-(diethoxyphosphoryl)-1-hydroxypropan-2-yl)amino)-4-methyl-1-oxopentan-2-yl)carbamate] | 26.8 µM
2 | CCOP(=O)(OCC)C(O)C(CC1CC2(CCCCC2)NC1=O)NC(=O)C(CC(C)C)NC(=O)OCc1cccc(Cl)c1 (stereo in doubt) [Compound C85, 3-Chlorobenzyl ((2R)-1-((1-(diethoxyphosphoryl)-1-hydroxy-3-(2-oxo-1-azaspiro[4.5]decan-3-yl)propan-2-yl)amino)-4-methyl-1-oxopentan-2-yl)carbamate] | 17.8 µM
3 | CC(C)C[C@H](NC(=O)OC1CCCC1Cc1ccccc1)C(=O)NC(C[C@@H]1CCNC1=O)C(=O)C(=O)NC1CC1 (stereo in doubt) [Compound C89, 2-Benzylcyclopentyl ((S)-1-(((R)-4-(cyclopropylamino)-3,4-dioxo-1-((S)-2-oxopyrrolidin-3-yl)butan-2-yl)amino)-4-methyl-1-oxopentan-2-yl)carbamate] | 0.3 µM
4 | CCCC1CCC(OC(=O)NC(CC(C)C)C(=O)NC(CC2CC3(CCN(C(C)=O)CC3)NC2=O)C(O)P(=O)(OCC)OCC)CC1 (stereo in doubt) [Compound C91, 4-Propylcyclohexyl ((2R)-1-((3-(8-acetyl-2-oxo-1,8-diazaspiro[4.5]decan-3-yl)-1-(diethoxyphosphoryl)-1-hydroxypropan-2-yl)amino)-4-methyl-1-oxopentan-2-yl)carbamate] | > 20 µM
5 | CC(=O)N1CCC2(CC1)CC(CC(NC(=O)C(Cc1ccccc1)NC(=O)c1cnc3ccccc3n1)C(=O)C(N)=O)C(=O)N2 (stereo in doubt) [Compound C130, N-((2S)-1-((1-(8-acetyl-2-oxo-1,8-diazaspiro[4.5]decan-3-yl)-4-amino-3,4-dioxobutan-2-yl)amino)-1-oxo-3-phenylpropan-2-yl)quinoxaline-2-carboxamide] | > 20 µM
6 | CCOP(=O)(OCC)C(O)[C@H](CCC(=O)N1CCN(C(=O)OC(C)(C)C)C(c2ccccc2)C1)NC(=O)[C@H](CC1CCCCC1)NC(=O)OCc1cccc(Cl)c1 (stereo partly drawn) [Compound C1, tert-butyl 4-((4S)-4-((S)-2-((((3-chlorobenzyl)oxy)carbonyl)amino)-3-cyclohexylpropanamido)-5-(diethoxyphosphoryl)-5-hydroxypentanoyl)-2-phenylpiperazine-1-carboxylate] | > 200 µM
7 | CCOP(=O)(OCC)C(O)[C@H](CCC(=O)N(C)C)NC(=O)C(CC(C)(C)C)NC(=O)OCc1cccc(Cl)c1 (stereo partly drawn) [Compound C2, 3-Chlorobenzyl (1-(((2S)-1-(diethoxyphosphoryl)-5-(dimethylamino)-1-hydroxy-5-oxopentan-2-yl)amino)-4,4-dimethyl-1-oxopentan-2-yl)carbamate] | 71 µM
8 | CCOP(=O)(OCC)C(O)[C@H](CCC(=O)N1CCNCc2ccccc21)NC(=O)[C@H](CC1CCCCC1)NC(=O)OCc1cccc(Cl)c1 (stereo partly shown) [Compound C3] | > 200 µM
9 | CC1C[C@H](NC(=O)[C@H](CC2CCCCC2)NC(=O)OCc2cccc(Cl)c2)C(O)N(CCc2ccccc2)C1=O (stereo partly shown) [Compound C4] | > 200 µM
10 | CCOP(=O)(OCC)C(O)[C@H](CCC(=O)N(C)C1(Cc2ccccc2)CC1)NC(=O)[C@H](CC1CCCCC1)NC(=O)OCc1cccc(Cl)c1 (stereo partly drawn) [Compound C5, 3-Chlorobenzyl ((2S)-1-(((2S)-5-((1-benzylcyclopropyl)(methyl)amino)-1-(diethoxyphosphoryl)-1-hydroxy-5-oxopentan-2-yl)amino)-3-cyclohexyl-1-oxopropan-2-yl)carbamate] | > 200 µM

Source: US20230159453A1 (COCRYSTAL PHARMA, INC., priority 2020, published 2023)
